The subject of one series is HBV. The series is described as follows: Anti-viral assay in HepG2.2.15 cells: HBV inhibitory activity (HBV DNA in culture medium by q-PCR). Type of series: cell-based. The settings on record: Hepatitis B virus, HepG2.2.15, 144 h, HepG2.2.15 cells, 6 days treatment, HBV DNA in culture medium by q-PCR, highest concentration 10 uM; read-out: EC50. The source says: (§1) Example 2: Anti-Viral Assay in HepG2.2.15 Cells
(§2) 1.1. Cell Line • HepG2.2.15 (the HepG2.2.15 cell line can be produced by transfection of the HepG2 cell line as described in Sells, Chen, and Acs 1987 (Proc. Natl. Acad. Sci. USA 84:1005-1009), and the HepG2 cell line is available from ATCC® under number HB-8065™). Reagents • DMEM/F12 (INVITROGEN-11330032) • FBS (GIBCO-10099-141) • Dimethyl sulfoxide(DMSO) (SIGMA-D2650) • Penicillin-streptomycin solution (HYCLONE-SV30010) • NEAA (INVITROGEN-1114050) • L-Glutamine (INVITROGEN-25030081) • Geneticin Selective Antibiotic (G418, 500 mg/ml) (INVITROGEN-10131027) • Trypsinase digestion solution (INVITROGEN-25300062) • CCK8 (BIOLOTE-35004) • QIAamp 96 DNA Blood Kit (12) (QIAGEN-51162) • FastStart Universal Probe Mast Mix (ROCHE-04914058001)
(§3) 2.1. HBV Inhibitory Activity and Cytotoxicity Determination
(§4) Seed the cell HepG2.2.15 cells into 96-well plate in 2% FBS culture medium at the density of 40,000 cells/well and 5,000 cells/well for HBV inhibitory activity and cytotoxicity determination, respectively. After seeding, incubate the cell plates at 37° C., 5% CO2 overnight. The next day, medium containing compounds is added to the cell to treat the cells for 6 days with medium refreshed once in the middle of the treatment. 8 dose points with 3 folds dilution of each compound were adopted and the highest concentration of the compounds is 10 uM and 100 uM for HBV inhibitory activity and cytotoxicity determination, respectively.
The HBV DAN change in the cell culture medium induced by the compounds is measured by q-PCR method. Briefly, the HBV DNA in the culture medium is extracted using QIAamp 96 DNA Blood Kit according to the manual and then quantified by q-PCR using the primers and probe in the table below.
(§5) EC50 and CC50 values are calculated by the GRAPHPAD PRISM software.

Series [1] is described as follows: Cytotoxicity determination in HepG2.2.15 cells (CCK-8). The settings on record: human, 6 days treatment, CCK-8, highest concentration 100 uM. The series is classed as cell-based.
Text: as §1, §2, §3, §4
After 6 days of compounds treatment, add 20 μl CCK-8 reagents to each well of cytotoxicity assay plates, incubate the plate at 37° C., 5% CO2 for 2.5 h and measure the absorbance at 450 nm wavelength, at the same time read the absorbance at 630 nm wavelength as reference.
as §5

In patent US11053235B2, “Substituted 1,4-dihydropyrimidines for the treatment of HBV infection or HBV-induced diseases” (Janssen Sciences Ireland Unlimited Company, priority 2018, dated 2021) one finds EC50 and CC50 data, which are given here for 17 molecules.

Structures are written as SMILES.

Regarding `CCOC(=O)C1=C([C@H]2CC[C@H](c3cc(C(=O)O)nn3C)CC2)NC(c2nccs2)=NC1c1ccc(F)c(F)c1Cl` (single isomer, unassigned) [Compound I-35-C, (trans)-5-(4-(6-(2-chloro-3,4-difluorophenyl)-5-(ethoxycarbonyl)-2-(thiazol-2-yl)-3,6-dihydropyrimidin-4-yl)cyclohexyl)-1-methyl-1H-pyrazole-3-carboxylic Acid], in the series with HBV, the EC50 was determined as 0.063 µM. In series [1], this molecule came in with a CC50 at 6 days of 7.16 µM.

`CCOC(=O)C1=C([C@H]2CC[C@H](c3cc(C(=O)O)n(C)n3)CC2)NC(c2nccs2)=NC1c1ccc(F)c(F)c1Cl` (single isomer, unassigned) [Compound I-36-B, (trans)-3-(4-(6-(2-Chloro-3,4-difluorophenyl)-5-(ethoxycarbonyl)-2-(thiazol-2-yl)-3,6-dihydropyrimidin-4-yl)cyclohexyl)-1-methyl-1H-pyrazole-5-carboxylic Acid]: the EC50 with HBV amounted to 0.0062 µM. Moreover, the CC50 at 6 days in series [1] came out at 5.94 µM.

Turning to `CCOC(=O)C1=C([C@H]2CC[C@H](c3cnn(CC(C)(C)C(=O)O)c3)CC2)NC(c2nccs2)=NC1c1ccc(F)c(F)c1Cl` (single isomer, unassigned) [Compound I-37-C, (trans)-3-(4-(4-(6-(2-Chloro-3,4-difluorophenyl)-5-(ethoxycarbonyl)-2-(thiazol-2-yl)-3,6-dihydropyrimidin-4-yl)cyclohexyl)-1H-pyrazol-1-yl)-2,2-dimethylpropanoic Acid], the EC50 in the series with HBV was 0.0083 µM. This molecule also returned a half-maximal cytotoxic concentration (CC50) at 6 days in series [1] of 2.22 µM.

For the molecule `CCOC(=O)C1=C([C@H]2CC[C@H](n3cc(C(=O)O)cn3)CC2)NC(c2nccs2)=NC1c1ccc(F)c(F)c1Cl` (single isomer, unassigned) [Compound I-38-B, (trans)-1-(4-(6-(2-Chloro-3,4-difluorophenyl)-5-(ethoxycarbonyl)-2-(thiazol-2-yl)-3,6-dihydropyrimidin-4-yl)cyclohexyl)-1H-pyrazole-4-carboxylic Acid], the EC50 with HBV is < 0.0046 µM. The molecule also yielded a CC50 at 6 days in series [1] of 11.3 µM.

For `CCOC(=O)C1=C([C@H]2CC[C@@H](n3nccc3C(=O)O)CC2)NC(c2nccs2)=NC1c1ccc(F)c(F)c1Cl` (single isomer, unassigned) [Compound I-39-B, (cis)-1-(4-(6-(2-Chloro-3,4-difluorophenyl)-5-(ethoxycarbonyl)-2-(thiazol-2-yl)-3,6-dihydropyrimidin-4-yl)cyclohexyl)-1H-pyrazole-5-carboxylic Acid], the EC50 in the series on HBV is 0.082 µM. The CC50 at 6 days in series [1] came out at 7.59 µM.

Regarding `CCOC(=O)C1=C([C@H]2CC[C@H](n3nccc3C(=O)O)CC2)NC(c2nccs2)=NC1c1ccc(F)c(F)c1Cl` (single isomer, unassigned) [Compound I-39-C, (trans)-1-(4-(6-(2-Chloro-3,4-difluorophenyl)-5-(ethoxycarbonyl)-2-(thiazol-2-yl)-3,6-dihydropyrimidin-4-yl)cyclohexyl)-1H-pyrazole-5-carboxylic Acid], in the series with HBV, the EC50 was 0.11 µM. This molecule yielded a 50% cytotoxic concentration (CC50) at 6 days in series [1] of 7.75 µM.

As for `CCOC(=O)C1=C([C@H]2CC[C@H](c3ncc(C(=O)O)cn3)CC2)NC(c2nccs2)=NC1c1ccc(F)c(F)c1Cl` (single isomer, unassigned) [Compound I-40-A, (trans)-2-(4-(6-(2-Chloro-3,4-difluorophenyl)-5-(ethoxycarbonyl)-2-(thiazol-2-yl)-3,6-dihydropyrimidin-4-yl)cyclohexyl)pyrimidine-5-carboxylic Acid], the EC50 in the series with HBV was < 0.0046 µM. Moreover, in series [1], the midpoint of cytotoxicity, the CC50 at 6 days, lay at 4.43 µM.

On to `CCOC(=O)C1=C([C@H]2CC[C@H](c3nc(C(=O)O)cs3)CC2)NC(c2nccs2)=NC1c1ccc(F)c(F)c1Cl` (single isomer, unassigned) [Compound I-41-B, (trans)-2-(4-(6-(2-Chloro-3,4-difluorophenyl)-5-(ethoxycarbonyl)-2-(thiazol-2-yl)-3,6-dihydropyrimidin-4-yl)cyclohexyl)thiazole-4-carboxylic Acid], for which the 50% effective concentration (EC50) in the series on HBV came out at 0.017 µM. The molecule further registered a CC50 at 6 days in series [1] of 1.02 µM.

With `CCOC(=O)C1=C([C@H]2CC[C@H](c3cc(C(=O)O)no3)CC2)NC(c2nccs2)=NC1c1ccc(F)c(F)c1Cl` (single isomer, unassigned) [Compound I-42-B, (trans)-5-(4-(6-(2-Chloro-3,4-difluorophenyl)-5-(ethoxycarbonyl)-2-(thiazol-2-yl)-3,6-dihydropyrimidin-4-yl)cyclohexyl)isoxazole-3-carboxylic Acid], the EC50 in the series with HBV turned out to be 0.083 µM. In addition, it took 10.8 µM to reach half-maximal cytotoxicity in series [1] (CC50 at 6 days).

In the case of `CCOC(=O)C1=C([C@H]2CC[C@H](c3cc(C(=O)O)on3)CC2)NC(c2nccs2)=NC1c1ccc(F)c(F)c1Cl` (single isomer, unassigned) [Compound I-43-B], the concentration for a half-maximal effect (EC50) in the series with HBV came out at 0.029 µM. Further, in series [1], it took 13.7 µM to reach half-maximal cytotoxicity (CC50 at 6 days).

As for `CCOC(=O)C1=C([C@H]2CC[C@H](c3ccc(C(=O)O)cc3)CC2)NC(c2nccs2)=NC1c1ccc(F)c(F)c1Cl` (single isomer, unassigned) [Compound I-44-A, (trans)-4-(4-(6-(2-Chloro-3,4-difluorophenyl)-5-(ethoxycarbonyl)-2-(thiazol-2-yl)-3,6-dihydropyrimidin-4-yl)cyclohexyl)benzoic Acid], in the series on HBV, the EC50 was determined as 0.0085 µM. The CC50 at 6 days in series [1] came out at 1.81 µM.

For the molecule `COC(=O)C1=C([C@H]2CC[C@H](c3ncc(C4(C(=O)O)CC4)cn3)CC2)NC(c2nccs2)=NC1c1ccc(F)c(F)c1Cl` (single isomer, unassigned) [Compound I-46-C, 1-(2-((trans)-4-(6-(2-chloro-3,4-difluorophenyl)-5-(methoxycarbonyl)-2-(thiazol-2-yl)-3,6-dihydropyrimidin-4-yl)cyclohexyl)pyrimidin-5-yl)cyclopropanecarboxylic Acid], in the series with HBV, the EC50 came to 0.015 µM. The molecule further gave a CC50 at 6 days in series [1] of 16.1 µM.

For the molecule `COC(=O)C1=C([C@H]2CC[C@H](c3ncc(C)c(C(=O)O)n3)CC2)NC(c2nccs2)=NC1c1ccc(F)c(F)c1Br` (single isomer, unassigned) [Compound I-47-D, 2-((Trans)-4-(6-(2-bromo-3,4-difluorophenyl)-5-(methoxycarbonyl)-2-(thiazol-2-yl)-3,6-dihydropyrimidin-4-yl)cyclohexyl)-5-methylpyrimidine-4-carboxylic Acid], the EC50 in the series on HBV was 0.0059 µM. Besides, in series [1], it took 19.3 µM to reach half-maximal cytotoxicity (CC50 at 6 days).

For `COC(=O)C1=C([C@H]2CC[C@H](c3nc(CC(=O)O)c(C)o3)CC2)NC(c2nccs2)=NC1c1ccc(F)cc1Cl` (single isomer, unassigned) [Compound I-48-B, (trans)-2-(2-(4-(6-(2-Chloro-4-fluorophenyl)-5-(methoxycarbonyl)-2-(thiazol-2-yl)-3,6-dihydropyrimidin-4-yl)cyclohexyl)-5-methyloxazol-4-yl)acetic Acid], in the series with HBV, the EC50 is 0.022 µM. Moreover, in series [1], the CC50 at 6 days was determined as 23 µM.

`COC(=O)C1=C([C@H]2CC[C@H](c3ncc(CC(=O)O)cn3)CC2)NC(c2nccs2)=NC1c1ccc(F)c(F)c1Cl` (single isomer, unassigned) [Compound I-49-A, 2-(2-((trans)-4-(6-(2-chloro-3,4-difluorophenyl)-5-(methoxycarbonyl)-2-(thiazol-2-yl)-3,6-dihydropyrimidin-4-yl)cyclohexyl)pyrimidin-5-yl)acetic Acid]: the EC50 in the series with HBV was 0.011 µM. In series [1], this molecule came in with a CC50 at 6 days of 24.7 µM.

As for `COC(=O)C1=C([C@H]2CC[C@H](c3ncc(CC(=O)O)cn3)CC2)NC(c2nccs2)=NC1c1ccc(F)cc1Cl` (single isomer, unassigned) [Compound I-50-A, 2-(2-((trans)-4-(6-(2-chloro-4-fluorophenyl)-5-(methoxycarbonyl)-2-(thiazol-2-yl)-3,6-dihydropyrimidin-4-yl)cyclohexyl)pyrimidin-5-yl)acetic Acid], the concentration giving a half-maximal response (EC50) in the series with HBV stood at 0.011 µM. This molecule also showed a CC50 at 6 days in series [1] of 16.4 µM.

With `COC(=O)C1=C(C2CCN(c3ncc(CC(=O)O)cn3)CC2)NC(c2nccs2)=NC1c1ccc(F)c(F)c1C` (single isomer, unassigned) [II-1-B, 2-(2-(4-(6-(3,4-Difluoro-2-methylphenyl)-5-(methoxycarbonyl)-2-(thiazol-2-yl)-3,6-dihydropyrimidin-4-yl)piperidin-1-yl)pyrimidin-5-yl)acetic Acid], the concentration giving a half-maximal response (EC50) with HBV is < 0.0046 µM. In addition, the midpoint of cytotoxicity in series [1], the CC50 at 6 days, lay at 4.97 µM.

The term EC50 denotes the concentration at which the effect is half-maximal. The term CC50 denotes the concentration at which the toxic effect on the cells reaches its halfway point. The low end stands for greater toxicity to the cells, the high end for lower toxicity to the cells.
